Laboratory results taken from patent US20240390362A1, “METHODS OF TREATING ERYTHROPOIETIC PROTOPORPHYRIA, X-LINKED PROTOPORPHYRIA, OR CONGENITAL ERYTHROPOIETIC PORPHYRIA WITH A SOLID FORM OF BITOPERTIN” (Disc Medicine, Inc., priority 2021, published 2024).

Tests used:
Assay type in all cases: cell-based
[1] = test system: clone 1-9 cells; test: LC/MS/MS of 5-ALA, PPIX and heme levels in the EPP K562 cellular model
[2] = test system: K562 clone-9 cells; test: Cell viability by Vi-CELL XR Complete System in EPP K562 model; settings: 96 hours incubation
Description: 900 μL of K562 clone-9 cells at 2×10^5 cells/mL in IMDM media with 10% FBS and 1% PS were plated into a 24-well plate. After 24-hour incubation, 100 μL of compound in DMSO/media was added in different concentration. The final concentration of DMSO was 0.1%. The compound was incubated for 96 hours at 37° C. Cell viability and cell count were measured by Vi-CELL XR Complete System. Finally, the effect of the compound on PPIX level was determined by flow cytometry.

[3] = test system: human cord blood-CD34+ cells; test: CD34+ cells transduced with FECH shRNA lentivirus, differentiated to erythroid cells; flow cytometry of PPIX and surface markers; settings: 100 nM, 9 days differentiation
Description: To investigate the effects of GlyT1 inhibitors in human hematopoietic stem cells with an EPP phenotype, lentiviral vectors expressing shRNA of FECH were constructed (Table 4) and transduced at 25 MOI into human cord blood-CD34+ cells purchased from Stemexpress.
Transduced CD34+ cells were differentiated in the presence of Bitopertin (100 nM) or DMSO control into erythroid cells for 9 days in StemSpan SFEM II media supplemented with StemSpan Erythroid Expansion Supplement. The erythroid cell antigen profile was analyzed using cytofluorimetric strategy with the following surface markers: CD71 (PE Mouse Anti-Human CD71, BD Biosciences), glycophoryin A (APC Mouse Anti-Human CD235a, BD Biosciences).

C[C@H](Oc1ccc(S(C)(=O)=O)cc1C(=O)N1CCN(c2ncc(C(F)(F)F)cc2F)CC1)C(F)(F)F [Bitopertin, [4-(3-fluoro-5-trifluoromethylpyridin-2-yl)piperazin-1-yl][5-methylsulfonyl-2-[((S)-2,2,2-trifluoro-1-methylethyl)oxy]phenyl]methanone]
effect on Heme formation [1]: minimal effect | effect on cell viability [2]: no negative effects | effect on erythroid cell surface markers (CD71, glycophorin A) [3]: no negative effects
